pEC50: −log10 of the molar value. Entries after “also recorded” stand apart in the source; their conditions may differ. Like-named read-outs stand apart in the source and are kept apart here. No end group written: not given here.
Assays:
[1] = tested on: intact pituitaries (GnRH1-induced CART secretion); experiment: inhibition of GnRH1-induced CART secretion in intact pituitaries, Western blot; format: cell-based, chicken; conditions: GnRH1 5 nM, 4 h, N = 3
Procedure: (§1) As described in our recent study ([Huang et al., 2014]), the intact anterior pituitaries collected from 1-week-old male chicks were washed with PBS and placed on a 48-well plate (NUNC) supplemented with 400 μl serum-free Medium 199 (Invitrogen). After 1-h incubation at 37°C, the medium was replaced by 300 μl serum-free Medium 199 containing different concentrations of chicken GnRH1 or GnRH2 (0.1–100 nM) and incubated for 4 h.
One representative set of Western blotting is shown at the bottom.

[2] = tested on: cultured chick pituitary cells (GnRH1-induced CART mRNA); format: cell-based, chicken; conditions: GnRH1 10 nM, 24 h, N = 4
Procedure: (§2) As described in our recent studies ([Huang et al., 2014]; [Mo et al., 2015]), anterior pituitaries collected from 1-week-old chicks were sliced and digested by 0.25% trypsin at 37°C for 20 min. The dispersed pituitary cells were cultured at a density of 5 × 10^5 cells/well in Medium 199 supplemented with 15% fetal bovine serum in a Corning Cell BIND 48-well plates (Corning, Tewksbury, MA) at 37°C with 5% CO2. After 24-h culture, the medium was replaced with serum-free M199 medium and the cells were treated with chicken GnRH1/GnRH2 for the duration (12–48 h) or with increasing doses (0.1–100 nM) of each peptide. The total RNA was then extracted from cultured pituitary cells and the expression of CART and β-actin assayed by qPCR.
“ND” indicates no statistical difference between the two groups. Each data point represents mean ± SEM of four replicates (N = 4). ^**p < 0.01 vs. control; ^#p < 0.01 vs. GnRH1 treatment (in the absence of drug). […] Total ERK2 in cell lysates was also examined and used as internal controls. Note: only a single band for pERK2 or total ERK2 (42 kDa) was detected in cell lysate, because ERK1 gene is lost in chicken genome ([Gerilechaogetu et al., 2009]). The representative sets of independent experimental duplicates are shown here.
“ND” indicates no statistical difference between the two groups. Each data point represents mean ± SEM of four replicates (N = 4). ^**p < 0.01 vs. control. […] The β-actin in cell lysates were also examined and used as internal controls. The representative sets of independent experimental duplicates are shown here.

[3] = tested on: cultured chick pituitary cells (CART mRNA); experiment: CART mRNA expression in cultured chick pituitary cells, qPCR; format: cell-based, chicken; conditions: N = 4
Description: Chicken anterior pituitaries were collected either for cell culture, or for total RNA extraction. Total RNA was extracted from chicken tissues or cultured pituitary cells using RNAzol (Molecular Research Center, Cincinnati, OH) and reversely transcribed using M-MLV reverse transcriptase (TaKaRa). Reverse transcription (RT) samples were then used for quantitative real-time PCR (qPCR) assays to investigate the mRNA expression of target genes, as described in our recent studies ([Cai et al., 2015]; [Mo et al., 2015]).
as §2
The data were analyzed by the Student’s t-test (between two groups) or by one-way ANOVA followed by the Dunnett test in GraphPad Prism 5 (GraphPad Software, San Diego, CA). To validate our results, all experiments were repeated at least three times.
The mRNA levels of CART were normalized by β-actin and expressed as the percentage of respective controls. Each value represents the mean ± SEM of four replicates (N = 4). ^*p < 0.05, ^**p < 0.01 vs. respective control. (E) RT-PCR detection of GnRHR2 expression in cultured chick pituitary cells (three replicates). RT was performed in the presence (+) or absence (−) of reverse transcriptase. Parallel PCR of β-actin was performed to serve as an internal control.

[4] = tested on: chicken GnRHR2; experiment: pGL3-NFAT-RE-luciferase reporter, calcium signaling pathway, CHO cells expressing chicken GnRHR2; format: cell-based; conditions: four replicates
Description: (§3) Based on the reported cDNA sequences of chicken GnRHR1 and GnRHR2 (accession nos.: NM_204653; NM_001012609) ([Sun et al., 2001]; [Shimizu and Bedecarrats, 2006]), gene-specific primers were used to amplify the open reading frame from adult chicken anterior pituitaries using high-fidelity Taq DNA polymerase (TOYOBO, Japan). The amplified PCR products were cloned into the pcDNA3.1 (+) expression vector (Invitrogen) and sequenced. According to our previously established methods, the signaling property of each receptor was examined in Chinese hamster ovary (CHO) cells using pGL3-NFAT-RE-luciferase ([Wang et al., 2012]), pGL4-SRE-luciferase ([Mo et al., 2015]), and pGL3-CRE-luciferase reporter systems ([Wang et al., 2007]).
(§4) Although two GnRH receptors (GnRHR1 and GnRHR2) have been identified in chickens ([Sun et al., 2001]; [Shimizu and Bedecarrats, 2006]; [Joseph et al., 2009]), their downstream signaling pathways have not been fully characterized.
(§5) Figure 5 Activation of chicken GnRHR1 or GnRHR2 expressed in CHO cells by chicken GnRH1 or GnRH2, monitored by pGL3-NFAT-RE-luciferase (A,D), pGL4-SRE-luciferase (B,E), and pGL3-CRE-luciferease (C,F) reporter systems. […] Each data point represents mean ± SEM of four replicates (N = 4).

[5] = tested on: chicken GnRHR2; experiment: pGL4-SRE-luciferase reporter, MAPK/ERK signaling pathway, CHO cells expressing chicken GnRHR2; format: cell-based; conditions: four replicates
Description: as §3, §4, §5

[6] = tested on: chicken GnRHR1; experiment: pGL3-NFAT-RE-luciferase reporter, calcium signaling pathway, CHO cells expressing chicken GnRHR1; format: cell-based; conditions: four replicates
Description: as §3, §4, §5

[7] = tested on: chicken GnRHR1; experiment: three cell-based luciferase reporter assays, GnRHR1 (qualitative); conditions: GnRHR1, CHO cells, calcium, MAPK/ERK and cAMP/PKA reporters
Description: as §3, §4, §5

[8] = tested on: chicken GnRHR1; experiment: pGL4-SRE-luciferase reporter, MAPK/ERK signaling pathway, CHO cells expressing chicken GnRHR1; format: cell-based; conditions: four replicates
Description: as §3, §4, §5

[9] = tested on: chicken GnRHR1; experiment: pGL3-CRE-luciferase reporter, cAMP/PKA signaling pathway, CHO cells expressing chicken GnRHR1; format: cell-based; conditions: four replicates
Description: as §3, §4, §5

[10] = tested on: chicken GnRHR2; experiment: pGL3-CRE-luciferase reporter, cAMP/PKA signaling pathway, CHO cells expressing chicken GnRHR2; format: cell-based; conditions: four replicates
Description: as §3, §4, §5

[11] = tested on: chicken GnRHR2; experiment: three cell-based luciferase reporter assays, GnRHR2 (qualitative)
Description: as §3, §4, §5

[12] = tested on: intact anterior pituitaries (CART secretion); experiment: CART peptide secretion from intact anterior pituitaries incubated in vitro, Western blot; format: cell-based, chicken; conditions: 4 h, intact chick pituitaries, N = 3
Procedure: as §1, with “h. […] Parallel blotting of β-actin and CART in pituitary tissue lysates was also conducted.” for “h.”
The intracellular CART (iCART) and β-actin levels in the pituitary tissue lysate were also examined in parallel. […] Each data point represents mean ± SEM of three replicates (N = 3). ^*p < 0.05; ^**p < 0.01 vs. respective control. […] One representative set of Western blot is shown at the top of each graph.

Q: `NCCOB(c1ccccc1)c1ccccc1` [2-APB, 2-aminoethoxydiphenyl borate] was tested. Which “effect on GnRH1-induced CART secretion” value ([1]; 2-APB 100 μM) did it give?
A: Its value is “significantly inhibited”.

Q: `CN([C@@H](Cc1ccc(OS(=O)(=O)c2cccc3cnccc23)cc1)C(=O)N1CCN(c2ccccc2)CC1)S(=O)(=O)c1cccc2cnccc12` [KN62] was tested. Which “effect on GnRH1-induced CART mRNA expression” value ([2]; KN62 5 μM) did it give?
A: Its value is “could inhibit GnRH1-induced CART mRNA expression”.

Q: Which “effect on GnRH1-induced CART mRNA expression” value ([2]; MDL12330A 20 μM) does the source give for `Cl.c1ccc(C2CCCC2NC2=NCCCCCCCCCCC2)cc1` (stereo not drawn) [MDL12330A] here?
A: Its value is “could abolish GnRH1-induced CART expression”.

Q: How did the “effect on GnRH1-induced CART mRNA expression” value ([2]; PD98059 100 μM) turn out when `COc1cccc(-c2cc(=O)c3ccccc3o2)c1N` [PD98059] was run?
A: The value was “could inhibit GnRH1-induced CART mRNA expression”.

Q: How did the “effect on GnRH1-induced CART mRNA expression” value ([2]; U73122 20 μM) turn out when `COc1ccc2c(c1)CC[C@@H]1[C@@H]2CC[C@]2(C)[C@@H](NCCCCCCN3C(=O)C=CC3=O)CC[C@@H]12` [U73122] was run?
A: Its value is “could inhibit GnRH1-induced CART mRNA expression”.

Q: And the “effect on GnRH1-induced CART secretion” value ([1]; U73122 20 μM)?
A: The value was “significantly inhibited”.

Q: For `Clc1ccc(C(c2ccc(Cl)cc2)n2cc[n+](CC(OCc3ccc(Cl)cc3Cl)c3ccc(Cl)cc3Cl)c2)cc1` (stereo not drawn) [calmidazolium], which “effect on GnRH1-induced CART mRNA expression” value ([2]; calmidazolium 1 μM) is on record?
A: The value was “could inhibit GnRH1-induced CART mRNA expression”.

Q: How did the “effect on GnRH1-induced CART mRNA expression” value ([2]; calphostin C 200 nM) turn out when `COc1c(C[C@@H](C)OC(=O)Oc2ccc(O)cc2)c2c3c(C[C@@H](C)OC(=O)c4ccccc4)c(OC)c(=O)c4c(O)cc(OC)c(c5c(OC)cc(O)c(c1=O)c52)c43` [calphostin C] was run?
A: The value was “could inhibit GnRH1-induced CART mRNA expression”.

Q: Which “effect on CART mRNA expression” value ([3]; forskolin 2 μM, 24 h) does the source give for `C=C[C@@]1(C)CC(=O)[C@]2(O)[C@@]3(C)[C@@H](O)CCC(C)(C)[C@@H]3[C@H](O)[C@H](OC(C)=O)[C@@]2(C)O1` [forskolin, reference compound] here?
A: The value was “could mimic GnRH1 action on CART expression”.

Q: `COC(=O)C1=C(C)NC(C)=C(C(=O)OC)C1c1ccccc1[N+](=O)[O-]` [nifedipine] was tested. Which “effect on GnRH1-induced CART mRNA expression” value ([2]; nifedipine 5 μM) did it give?
A: Its value is “could inhibit GnRH1-induced CART mRNA expression”.

Q: What about the “effect on GnRH1-induced CART secretion” value ([1]; nifedipine 5 μM) of the same compound?
A: Its value is “significantly inhibited”.

Q: With `C/C=C(/C)C(=O)O[C@H]1C(C)=C2[C@H]([C@@H]1OC(=O)CCCCCCC)[C@@](C)(OC(C)=O)C[C@H](OC(=O)CCC)[C@@]1(O)[C@H]2OC(=O)[C@@]1(C)O` [thapsigargin] as the compound, how does the “effect on GnRH1-induced CART mRNA expression” value ([2]; thapsigargin 100 nM) read?
A: The value was “could inhibit GnRH1-induced CART mRNA expression”.

Q: How did the pEC50 [4] turn out when “GnRH2: chicken gonadotropin-releasing hormone 2, synthesized using solid-phase Fmoc chemistry (QHWSHGWYPG; not fully specified; ends and bridges not checked; UniProt P68072 1-10, looked up)” was run?
A: The pEC50 was 9.59.

Q: And the pEC50 [5]?
A: The pEC50 was 8.55.

Q: And the pEC50 [6]?
A: Its pEC50 is 9.41.

Q: And the “activation of GnRHR1 (luciferase activity)” value [7]?
A: Its value is “stimulate the luciferase activities dose-dependently; also recorded: potently activated by GnRH2”.

Q: What about the pEC50 [8] of the same compound?
A: Its pEC50 is 8.51.

Q: What about the pEC50 [9] of the same compound?
A: The pEC50 was 9.16.

Q: And the pEC50 [10]?
A: The pEC50 was 9.57.

Q: What about the “effect on CART mRNA expression, time and dose dependence” value ([3]; 10 nM time course or 0–100 nM for 48 h, qPCR) of the same compound?
A: Its value is “induce CART expression in time- and dose-dependent manners”.

Q: And the “relative potency at GnRHR2” value ([11]; GnRH2 compared with GnRH1, GnRHR2, CHO cells)?
A: Its value is “slightly more potent than GnRH1”.

Q: What about the “activation of GnRHR2 (luciferase activity)” value ([11]; GnRHR2, CHO cells, calcium, MAPK/ERK and cAMP/PKA reporters) of the same compound?
A: Its value is “stimulate the luciferase activities dose-dependently; also recorded: potently activated by both GnRH1 and GnRH2”.

Q: What about the “secretion of mature CART peptide” value ([12]; 0–100 nM) of the same compound?
A: Its value is “potently stimulated the secretion of mature CART peptide”.

Q: And the “minimal effective concentration, CART secretion” value [12]?
A: Its value is 1 nM.
